Test results reported in patent publication US20250186437A1, “CARBOLINE COMPOUNDS AND USE THEREOF” (PTC Therapeutics, Inc., priority 2021, published 2025).

system: MOLM-13 cells; assay: MOLM-13 Cell Proliferation Assay (indicator of DHODH inhibition); format: cell-based; settings: Homo sapiens, 72 Hours of culture, CellTiter-Glo, no uridine
How it was run: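 Low-passage MOLM-13 cells (10^4/well) in RPMI 1640 + 10% FBS exposed to compound (0.5% DMSO final) for 72 h at 37 °C, 5% CO2. Viability read by CellTiter-Glo luminescence; growth reflects de novo pyrimidine synthesis dependent on DHODH.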

IC50 [nM]	SMILES
0.3	Fc1c(Br)ccc(C2c3[nH]c4ccc(Cl)cc4c3CCN2c2nccc(C(F)(F)F)n2)c1F (stereo not drawn) [Compound 270, 1-(4-bromo-2,3-difluorophenyl)-6-chloro-2-[4-(trifluoromethyl)pyrimidin-2-yl]-2,3,4,9-tetrahydro-1H-pyrido[3,4-b]indole]
58.5	Fc1cc(-n2ccnc2)ccc1C1c2[nH]c3ccc(Cl)cc3c2CCN1c1ncccn1 (stereo not drawn) [Compound 274, 6-chloro-1-[2-fluoro-4-(1H-imidazol-1-yl)phenyl]-2-(pyrimidin-2-yl)-2,3,4,9-tetrahydro-1H-pyrido[3,4-b]indole]
7.3	Fc1cc(-n2ccnc2)ccc1C1c2[nH]c3ccc(Cl)cc3c2CCN1c1nccc(C(F)(F)F)n1 (stereo not drawn) [Compound 275, 6-chloro-1-[2-fluoro-4-(1H-imidazol-1-yl)phenyl]-2-[4-(trifluoromethyl)pyrimidin-2-yl]-2,3,4,9-tetrahydro-1H-pyrido[3,4-b]indole]
0.6	Cc1cc(O)c2[nH]c3c(c2c1)CCN(c1nccc(C(F)(F)F)n1)C3c1ccc(C)c(F)c1F (stereo not drawn) [Compound 276, 1-(2,3-difluoro-4-methylphenyl)-6-methyl-2-[4-(trifluoromethyl)pyrimidin-2-yl]-2,3,4,9-tetrahydro-1H-pyrido[3,4-b]indol-8-ol]
5.4	Fc1cc(N2CCOCC2)ccc1C1c2[nH]c3ccc(Cl)cc3c2CCN1c1nccc(C(F)(F)F)n1 (stereo not drawn) [Compound 277, 6-chloro-1-[2-fluoro-4-(morpholin-4-yl)phenyl]-2-[4-(trifluoromethyl)pyrimidin-2-yl]-2,3,4,9-tetrahydro-1H-pyrido[3,4-b]indole]
5.1	Fc1c(C2c3[nH]c4ccc(Cl)cc4c3CCN2c2nccc(C(F)(F)F)n2)ccc(N2CCOCC2)c1F (stereo not drawn) [Compound 279, 6-chloro-1-[2,3-difluoro-4-(morpholin-4-yl)phenyl]-2-[4-(trifluoromethyl)pyrimidin-2-yl]-2,3,4,9-tetrahydro-1H-pyrido[3,4-b]indole]
4.1	CCCCOC(=O)c1ccnc(N2CCc3c([nH]c4ccc(Cl)cc34)C2c2ccc(C)cc2)n1 (stereo not drawn) [Compound 280, butyl 2-[6-chloro-1-(4-methylphenyl)-1,3,4,9-tetrahydro-2H-pyrido[3,4-b]indol-2-yl]pyrimidine-4-carboxylate]
1.4	CCCCOC(=O)c1ccnc(N2CCc3c([nH]c4ccc(Cl)cc34)C2c2ccc(C)c(F)c2F)n1 (stereo not drawn) [Compound 281, butyl 2-[6-chloro-1-(2,3-difluoro-4-methylphenyl)-1,3,4,9-tetrahydro-2H-pyrido[3,4-b]indol-2-yl]pyrimidine-4-carboxylate]
0.6	Cc1nc(C)nc(N2CCc3c([nH]c4ccc(Cl)cc34)C2c2ccc(Br)c(F)c2F)n1 (stereo not drawn) [Compound 283, 1-(4-bromo-2,3-difluorophenyl)-6-chloro-2-(4,6-dimethyl-1,3,5-triazin-2-yl)-2,3,4,9-tetrahydro-1H-pyrido[3,4-b]indole]
2.8	Fc1c(C2c3[nH]c4ccc(Cl)cc4c3CCN2c2nccc(C(F)(F)F)n2)ccc(-n2ccnc2)c1F (stereo not drawn) [Compound 285, 6-chloro-1-[2,3-difluoro-4-(1H-imidazol-1-yl)phenyl]-2-[4-(trifluoromethyl)pyrimidin-2-yl]-2,3,4,9-tetrahydro-1H-pyrido[3,4-b]indole]
4.1	Cc1ccc(C2c3[nH]c4ccc(Cl)cc4c3CCN2c2nc(C)cc(C)n2)cc1 (stereo not drawn) [Compound 286, 6-chloro-2-(4,6-dimethylpyrimidin-2-yl)-1-(4-methylphenyl)-2,3,4,9-tetrahydro-1H-pyrido[3,4-b]indole]
2.9	Cc1ccc(C2c3[nH]c4ccc(-n5nccn5)cc4c3CCN2c2nccc(C(F)(F)F)n2)cc1 (stereo not drawn) [Compound 287, 1-(4-methylphenyl)-6-(2H-1,2,3-triazol-2-yl)-2-[4-(trifluoromethyl)pyrimidin-2-yl]-2,3,4,9-tetrahydro-1H-pyrido[3,4-b]indole]
27.1	Cc1nc(Cl)nc(N2CCc3c([nH]c4ccc(Cl)cc34)C2c2cnc(N3CCOCC3)nc2)n1 (stereo not drawn) [Compound 289, 6-chloro-2-(4-chloro-6-methyl-1,3,5-triazin-2-yl)-1-[2-(morpholin-4-yl)pyrimidin-5-yl]-2,3,4,9-tetrahydro-1H-pyrido[3,4-b]indole]
19.7	Cc1nc(N(C)C)nc(N2CCc3c([nH]c4ccc(Cl)cc34)C2c2cnc(N3CCOCC3)nc2)n1 (stereo not drawn) [Compound 290, 4-{6-chloro-1-[2-(morpholin-4-yl)pyrimidin-5-yl]-1,3,4,9-tetrahydro-2H-pyrido[3,4-b]indol-2-yl}-N,N,6-trimethyl-1,3,5-triazin-2-amine]
4.4	C=Cc1ccc2[nH]c3c(c2c1)CCN(c1nccc(C(F)(F)F)n1)C3c1ccc(C)cc1 (stereo not drawn) [Compound 291, 6-ethenyl-1-(4-methylphenyl)-2-[4-(trifluoromethyl)pyrimidin-2-yl]-2,3,4,9-tetrahydro-1H-pyrido[3,4-b]indole]
12.1	Cc1ccc(C2c3[nH]c4c(N)cc(Cl)cc4c3CCN2c2nc(C)nc(C)n2)cc1 (stereo not drawn) [Compound 292, 6-chloro-2-(4,6-dimethyl-1,3,5-triazin-2-yl)-1-(4-methylphenyl)-2,3,4,9-tetrahydro-1H-pyrido[3,4-b]indol-8-amine]
14.7	COc1nc(C)nc(N2CCc3c([nH]c4ccc(Cl)cc34)C2c2cnc(N3CCOCC3)nc2)n1 (stereo not drawn) [Compound 295, 6-chloro-2-(4-methoxy-6-methyl-1,3,5-triazin-2-yl)-1-[2-(morpholin-4-yl)pyrimidin-5-yl]-2,3,4,9-tetrahydro-1H-pyrido[3,4-b]indole]
16.2	Cc1nc(N2CCOCC2)nc(N2CCc3c([nH]c4ccc(Cl)cc34)C2c2cnc(N3CCOCC3)nc2)n1 (stereo not drawn) [Compound 296, 6-chloro-2-[4-methyl-6-(morpholin-4-yl)-1,3,5-triazin-2-yl]-1-[2-(morpholin-4-yl)pyrimidin-5-yl]-2,3,4,9-tetrahydro-1H-pyrido[3,4-b]indole]
78	CN(C)c1ncnc(N2CCc3c([nH]c4ccc(Cl)cc34)C2c2cnc(N3CCOCC3)nc2)n1 (stereo not drawn) [Compound 297, 4-{6-chloro-1-[2-(morpholin-4-yl)pyrimidin-5-yl]-1,3,4,9-tetrahydro-2H-pyrido[3,4-b]indol-2-yl}-N,N-dimethyl-1,3,5-triazin-2-amine]
1.2	FC(F)(F)c1ccnc(N2CCc3c([nH]c4ccc(Br)cc34)C2c2cnc(N3CCOCC3)nc2)n1 (stereo not drawn) [Compound 298, 6-bromo-1-[2-(morpholin-4-yl)pyrimidin-5-yl]-2-[4-(trifluoromethyl)pyrimidin-2-yl]-2,3,4,9-tetrahydro-1H-pyrido[3,4-b]indole]
6.8	Cc1nc(C)nc(N2CCc3c([nH]c4ccc(Br)cc34)C2c2cnc(N3CCOCC3)nc2)n1 (stereo not drawn) [Compound 299, 6-bromo-2-(4,6-dimethyl-1,3,5-triazin-2-yl)-1-[2-(morpholin-4-yl)pyrimidin-5-yl]-2,3,4,9-tetrahydro-1H-pyrido[3,4-b]indole]
20.5	Cc1nc(C)nc(N2CCc3c([nH]c4ccc(-n5nccn5)cc34)C2c2cnc(N3CCOCC3)nc2)n1 (stereo not drawn) [Compound 300, 2-(4,6-dimethyl-1,3,5-triazin-2-yl)-1-[2-(morpholin-4-yl)pyrimidin-5-yl]-6-(2H-1,2,3-triazol-2-yl)-2,3,4,9-tetrahydro-1H-pyrido[3,4-b]indole]
23.9	FC(F)(F)c1ccnc(N2CCc3c([nH]c4ccc(-n5cccn5)cc34)C2c2cnc(N3CCOCC3)nc2)n1 (stereo not drawn) [Compound 301, 1-[2-(morpholin-4-yl)pyrimidin-5-yl]-6-(1H-pyrazol-1-yl)-2-[4-(trifluoromethyl)pyrimidin-2-yl]-2,3,4,9-tetrahydro-1H-pyrido[3,4-b]indole]
7	COc1ccc2[nH]c3c(c2c1)CCN(c1nccc(C(F)(F)F)n1)C3c1cnc(N2CCOCC2)nc1 (stereo not drawn) [Compound 302, 6-methoxy-1-[2-(morpholin-4-yl)pyrimidin-5-yl]-2-[4-(trifluoromethyl)pyrimidin-2-yl]-2,3,4,9-tetrahydro-1H-pyrido[3,4-b]indole]
2.5	FC(F)(F)c1ccnc(N2CCc3c([nH]c4ccc(Cl)cc34)C2c2ccc(N3CCOCC3)nc2)n1 (stereo not drawn) [Compound 303, 6-chloro-1-[6-(morpholin-4-yl)pyridin-3-yl]-2-[4-(trifluoromethyl)pyrimidin-2-yl]-2,3,4,9-tetrahydro-1H-pyrido[3,4-b]indole]
93.9	Cc1nc(C)nc(N2CCc3c([nH]c4c(N)cc(Cl)cc34)C2c2ccc(C)c(F)c2F)n1 (stereo not drawn) [Compound 304, 6-chloro-1-(2,3-difluoro-4-methylphenyl)-2-(4,6-dimethyl-1,3,5-triazin-2-yl)-2,3,4,9-tetrahydro-1H-pyrido[3,4-b]indol-8-amine]
20	Cc1ccc(C2c3[nH]c4ccc(Cl)cc4c3CCN2c2nccc(N(C)C)n2)c(F)c1F (stereo not drawn) [Compound 306, 2-[6-chloro-1-(2,3-difluoro-4-methylphenyl)-1,3,4,9-tetrahydro-2H-pyrido[3,4-b]indol-2-yl]-N,N-dimethylpyrimidin-4-amine]
99.2	Cc1ccc(C2c3[nH]c4ccc(Cl)cc4c3CCN2c2nccc(N(C)C)n2)cc1 (stereo not drawn) [Compound 307, 2-[6-chloro-1-(4-methylphenyl)-1,3,4,9-tetrahydro-2H-pyrido[3,4-b]indol-2-yl]-N,N-dimethylpyrimidin-4-amine]
3.8	Cc1cc(C)nc(N2CCc3c([nH]c4ccc(Cl)cc34)C2c2cnc(N3CCOCC3)nc2)n1 (stereo not drawn) [Compound 308, 6-chloro-2-(4,6-dimethylpyrimidin-2-yl)-1-[2-(morpholin-4-yl)pyrimidin-5-yl]-2,3,4,9-tetrahydro-1H-pyrido[3,4-b]indole]
5.6	Cc1nc(C)nc(N2CCc3c([nH]c4c(N)cc(Cl)cc34)C2c2cnc(N3CCOCC3)nc2)n1 (stereo not drawn) [Compound 309, 6-chloro-2-(4,6-dimethyl-1,3,5-triazin-2-yl)-1-[2-(morpholin-4-yl)pyrimidin-5-yl]-2,3,4,9-tetrahydro-1H-pyrido[3,4-b]indol-8-amine]
